Laboratory results taken from patent US20210353579A1, “HIGH PENETRATION COMPOSITIONS AND USES THEREOF” (Techfields Pharma Co., Ltd., priority 2006, published 2021).

What was measured:
[1] = system: Human breast cancer cells (BCAP-37); experiment: Human breast cancer xenograft in nude mice, topical; details: day 42, 30 μl of 5% (1.5 mg) topically every 8 hours from day 14; for Tumor size: control 800 ± 100
Procedure: Human breast cancer cells (BCAP-37, 2-3 mm^3 of tumor tissue was used in each mouse) are subcutaneously xenografted into the front leg of nude mice (BALB, 12 groups, 7 mice each group). […] Then 30 μl of 5% (equal to 1.5 mg of the HPPs) diethylaminoethyl acetylsalicylate.acetylsalicylic acid salt (P-1, in acetone); 1-piperidinepropyl 2[(2,6-dichlorophenyl)amino]benzene acetate.AcOH (P-2, in water), 1-pyrrolidinepropyl 2-(3-benzoylphenyl) propionate.AcOH (P-3, in water), 4-piperidinemethyl 2-(3-phenoxyphenyl)propionate.AcOH (P-4, in water), 3-piperidinemethyl 2-(ρ-isobutylphenyl) propionate.AcOH (P-5, in water), diethylaminoethyl 1-(p-chlorobenzoyl)-5-methoxy-2-methylindole 3-acetate.AcOH (P-11, in water), 2-(4-morpholinyl)ethyl (Z)-5-fluoro-2-methyl-1-[(4-methylsulfinyl) phenylmethylene]-1H-indene-3-acetate.AcOH (P-12, in water), diethylaminoethyl

[2] = system: Human colon cancer cells (LS174J); experiment: Human colon cancer xenograft in nude mice, topical; details: day 30, about 30 μl of 5% solution (1.5 mg) topically applied
Source text: Human colon cancer cells (LS174J, 2-3 mm^3 of tumor tissue was used in each mouse) are subcutaneously xenografted into the front leg of nude mice (BALB).

[3] = Plasma levels after transdermal administration to hairless mice; type: in vivo; details: mouse, in vivo
Procedure: Tested compounds (20% solution or suspension in 1 mL isopropanol) are administered transdermally to the skin of intact hairless mice. The plasma levels of the parent compounds are determined by HPLC.

human skin tissue = details: pH 7.4
mice = experiment: Analgesic activity, acetic acid writhing; type: in vivo
Procedure: The prodrug compounds are administered either transdermally or orally. The parent compounds are administered orally. The number of writhing that occurred when mice are administered the acetic acid solution are counted, and the rate of inhibition based on the control group which was not pretreated with any test compounds is calculated. […] The A group is the control group.

rats = experiment: Antipyretic activity, E. coli suspension as pyrogen; type: in vivo; details: in °C (unit assumed)
Procedure: Rats are administered with sterilized E. coli suspension as a pyrogen. Each group of rats are administered with a prodrug compounds or parent compounds at a dosage specified below. The prodrug compounds are administered either orally or transdermally. The parent compounds are administered orally.

rat = details: rats
Procedure: The acute toxicity of the prodrug compounds and parent compounds are measured by LD50 of rat.

[4] = 100 mg/kg transdermally, 30 min before acetic acid
[5] = 100 mg/kg transdermally, 60 minutes before acetic acid
[6] = 50 mg/kg transdermally, 60 minutes before acetic acid
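Wherever LD50 of HPP is given: acute toxicity in rats expressed as LD50, determined for both prodrugs and their parent compounds.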

Compound	Tumor size [1] [mm^3]	Tumor size [2] [mm^3]	Peak plasma concentration of parent compound after prodrug compound [3] [mg/L]	t, time to peak plasma level of parent compound after prodrug compound [3] [min]	In vitro penetration rate (apparent flux), prodrug compounds (human skin tissue) [μg/cm^2/h]	body temperature, t = 0 min (rats; 100 mg/kg transdermally)	body temperature, t = 90 min (rats; 100 mg/kg transdermally)	body temperature, t = 180 min (rats; 100 mg/kg transdermally)	body temperature, t = 270 min (rats; 100 mg/kg transdermally)	LD50 of HPP (rat) [mg/kg]	other results
CC(=O)O.O=C(Cc1ccccc1Nc1c(Cl)cccc1Cl)OCCCN1CCCCC1 [P-2, 1-piperidinepropyl 2[(2,6-dichlorophenyl)amino]benzene acetate.AcOH]	180 ± 50	480 ± 180	–	–	–	–	–	–	–	–	Mouse weight ([1]; control 22 ± 2): 22 ± 2 g; Mouse weight [2]: 22 ± 2 g
CC(=O)O.CC(C(=O)OCCCN1CCCC1)c1cccc(C(=O)c2ccccc2)c1 (stereo not shown) [P-3, 1-pyrrolidinepropyl 2-(3-benzoylphenyl) propionate.AcOH]	200 ± 50	500 ± 150	–	–	–	–	–	–	–	–	–
CC(=O)O.CC(C(=O)OCC1CCNCC1)c1cccc(Oc2ccccc2)c1 (stereo not shown) [P-4, 4-piperidinemethyl 2-(3-phenoxyphenyl)propionate.AcOH]	180 ± 50	480 ± 120	–	–	–	–	–	–	–	–	–
CC(=O)O.Nc1c(CC(=O)OCCN2CCOCC2)cccc1C(=O)c1ccccc1 [P-16, 2-(4-morpholinyl)ethyl 2-amino-3-benzoylbenzeneacetate.AcOH]	–	550 ± 150	–	–	–	–	–	–	–	–	–
CC(=O)O.CCN(CC)CCOC(=O)C(C)c1ccc2c(c1)CC(=O)c1ccccc1S2 (stereo not shown) [diethylaminoethyl 2-(10, 11-dihydro-10-oxodibenzo(b,f)thiepin-2-yl)propionate.AcOH]	–	480 ± 180	2000	50	3700	37.25 ± 0.06	36.71 ± 0.05	36.65 ± 0.08	36.64 ± 0.07	–	% (rate of writhing inhibition) (mice; [4]): 59%; No. of Writhing (mice; [4]): 14.2
CC(=O)O.CCN(CC)CCOC(=O)c1ccccc1Nc1cccc(C)c1C [diethylaminoethyl 2-[(2,3-dimethylphenyl)amino]benzoate.AcOH]	–	650 ± 250	20	50	2100	37.35 ± 0.06	36.71 ± 0.05	36.60 ± 0.08	36.59 ± 0.07	900	% (rate of writhing inhibition) (mice; [5]): 55%; No. of Writhing (mice; [5]): 15.6
CC(=O)O.CCN(CC)CCOC(=O)c1ccccc1Nc1c(Cl)ccc(C)c1Cl [diethylaminoethyl 2-[(2,6-dichloro-3-methylphenyl)amino]benzoate.AcOH]	–	490 ± 150	20	50	2000	37.28 ± 0.06	36.68 ± 0.05	36.62 ± 0.08	36.58 ± 0.07	1000	% (rate of writhing inhibition) (mice; [5]): 59%; No. of Writhing (mice; [5]): 14.2
N-(2-thiazolyl)-4-N,N-dimethylaminobutyryloxy-2-methyl-2H,1,2-benzothiazine-3-carboxamide 1,1-dioxide.HCl	–	690 ± 250	20	50	1500	–	–	–	–	670	% (rate of writhing inhibition) (mice; [6]): 55%; No. of Writhing (mice; [6]): 15.7; body temperature, t = 0 min (rats; 25 mg/kg transdermally): 37.50 ± 0.07; body temperature, t = 90 min (rats; 25 mg/kg transdermally): 36.61 ± 0.04; body temperature, t = 180 min (rats; 25 mg/kg transdermally): 36.50 ± 0.07; body temperature, t = 270 min (rats; 25 mg/kg transdermally): 36.60 ± 0.05
